In patent publication US6043245A, “Tetrahydrofuran antifungal phosphate” (Schering Corporation, priority 1998, dated 2000):
Where two headings read alike, the source gives them in different places.

Experiments:
Aspergillus species = assay: In vitro antifungal activity against Aspergillus species; format: cell-based; conditions: Aspergillus species (n = 30); Espinel-Ingroff's methodology
Description: (§1) The in vitro anti-fungal activities of the compounds of the formulas II, III and IV against forty-one species of Candida, thirty species of Aspergillus and nine species of Cryptococcus are summarized in Table 5. […] This Aspergillus pulmonary infection model in mice was performed in accordance with the procedures of David Loebenberg et al. entitled "In vitro and in vivo activity of Sch 42427, the active enantiomer of the antifungal agent Sch 39304" published in Antimicrobial Agents and Chemotherapy (1992), Vol. 36, pp. 498-501.
(§2) In Vitro Antifungal Activity(mcg/mL)
^2 In vitro activity against Aspergillus measured in accordance with
EspinelIngroff's Methodology

fungal infection = assay: Antifungal activity in in vivo tests in mice; design: species or system mouse; conditions: for antifungal activity in in vivo tests in mice versus existing antifungal agents: versus itraconazole, fluconazole and azoles of US 5,039,676 and WO 93/09114
Description: as §1

Cryptococcus neoformans = assay: In vitro antifungal activity against Cryptococcus neoformans; format: cell-based
Description: as §1, §2
(§3) ^3 In vitro activity measured in accordance with procedures for NCCLS

Candida species = assay: In vitro antifungal activity against Candida species; format: cell-based
Description: as §1, §2, §3

[1] = In vivo hydrolysis of prodrug; conditions: II to III; III to IV
Excerpt: The compound of formula II hydrolyzes in vivo to the compound of formula III; III then hydrolyzes in vivo to the compound of formula IV.

[2] = Pharmacokinetic studies in human tissues and serum (metabolism); format: in vitro ADME
Candida albicans = assay: Mice with a systemic Candida albicans infection; format: in vivo, mouse; Candida albicans; conditions: 10 mg/kg
Aspergillus fumigatus = assay: Aspergillus pulmonary infection model in mice; format: in vivo, mouse; Aspergillus fumigatus; conditions: 10 mg/kg
Description: as §1

[3] = tested on: Candida, Aspergillus and Cryptococcus; assay: In vitro antifungal activity, comparison of geometric mean MICs; format: cell-based; conditions: comparison among II, III and IV
Description: as §1

[4] = Plasma pharmacokinetics of formula IV in mice after intravenous di-NMG salt; format: in vivo, mouse (male Charles River); design: AUC (of formula IV), time zero to 24 hrs: unit not given here; conditions: for AUC (of formula IV), time zero to 24 hrs: Table 3, mouse plasma, IV 20 mg/kg formula IV equivalent of di-NMG salt
Description: Concentrations of the compound of formula IV in pooled mouse^1
plasma (2 mice/pool) following intravenous administration of a 20
mg/kg of the compound of formula IV dose equivalent of the di-NMG
salt of the compound of this invention represented by the formula II in
^1 Male Charles River mice having an average body weight of 18-20 g
mg/kg of compound of formula IV dose equivalent of the di-NMG
salt of the compound of the prior art represented by formula V
PHARMACOKINETIC ("PK") PARAMETERS OF THE
COMPOUND OF FORMULA IV IN MOUSE^1 PLASMA
FOLLOWING INTRAVENOUS ADMINISTRATION OF 20 MG/KG
OF COMPOUND OF FORMULA IV DOSE EQUIVALENT OF THE
DI-NMG SALTS OF THE COMPOUNDS OF FORMULAS II AND V
IN STERILE WATER TO MICE.

Water solubility = format: physicochemical
[5] = read-out: G mean MICs (geometric mean MIC)

For `CC[C@@H]([C@H](C)O)n1ncn(-c2ccc(N3CCN(c4ccc(OC[C@@H]5CO[C@@](Cn6cncn6)(c6ccc(F)cc6F)C5)cc4)CC3)cc2)c1=O` [Formula IV, reference compound], the MIC (Aspergillus species) was 0.0156 to 1 µg/mL, the “antifungal activity in in vivo tests in mice versus existing antifungal agents” value (fungal infection) was “unexpectedly better than that of existing antifungal agents” and the MIC (Cryptococcus neoformans; [5]) was 0.04 µg/mL. The MIC (Cryptococcus neoformans; read-out: MIC Range) was 0.015 to 0.5 µg/mL, the MIC (Candida species; [5]) was 0.2 µg/mL and the MIC (Candida species; read-out: MIC Range) was 0.0156 to 8 µg/mL.
With `CC[C@@H]([C@H](C)OC(=O)CCCO)n1ncn(-c2ccc(N3CCN(c4ccc(OC[C@@H]5CO[C@@](Cn6cncn6)(c6ccc(F)cc6F)C5)cc4)CC3)cc2)c1=O` [Formula III, 2(S)-[4-{4-{4-{4-[[(R-Cis)-2-(2,4-difluorophenyl)-tetrahydro-2-(1H-1,2,4-triazol-1-ylmethyl)-4-furanyl]methoxy]phenyl]-1-piperazinyl]phenyl]-4,5-dihydro-5-oxo-1H-1,2,4-triazol-1-yl]-1-(S)-methylbutyl-4-hydroxy-butanoate] the MIC (Aspergillus species) was 0.0313 to 2 µg/mL, the “antifungal activity in in vivo tests in mice versus existing antifungal agents” value (fungal infection) was “unexpectedly better than that of existing antifungal agents” and the “site of hydrolysis in vivo” value [1] was “primarily in the serum”. For the same molecule, the MIC (Cryptococcus neoformans; [5]) was 0.09 µg/mL, the MIC (Cryptococcus neoformans; read-out: MIC Range) was 0.0156 to 0.5 µg/mL and the MIC (Candida species; [5]) was 0.3 µg/mL. The MIC (Candida species; read-out: MIC Range) was 0.0156 to 8 µg/mL.
With `CC[C@@H]([C@H](C)OC(=O)CCCOP(=O)(O)O)n1ncn(-c2ccc(N3CCN(c4ccc(OC[C@@H]5CO[C@@](Cn6cncn6)(c6ccc(F)cc6F)C5)cc4)CC3)cc2)c1=O` [Formula II, 5-[[2(S)-[4-[4-[4-[4-[[(R-cis)-5-(2,4-difluorophenyl)-tetrahydro-5-(1H-1,2,4-triazol-1-ylmethyl)-3-furanyl]methoxy]phenyl]-1-piperazinyl]phenyl]-4,5-dihydro-5-oxo-1H-1,2,4-triazol-1-yl]-1(S)-methylbutyl]oxy]-5-oxobutyl phosphate] the metabolism [2] was “metabolized to the compound of formula IV via the metabolite represented by formula III”, the “survival at day 9” value (Candida albicans) was 100% and the “in vivo activity in two mice models” value (fungal infection; systemic Candida albicans and pulmonary Aspergillus fumigatus) was “good in vivo activity”. For the same molecule, the “site of hydrolysis in vivo” value [1] was “primarily in the serum and in tissues (liver, lung and kidney)”, the MIC (Cryptococcus neoformans; [5]) was 1.9 µg/mL and the MIC (Cryptococcus neoformans; read-out: MIC Range) was 0.125 to 32 µg/mL. For the same molecule, the survival (Aspergillus fumigatus) was 70%, the “in vitro antifungal activity, comparison of geometric mean MICs” value [3] was “much lower” and the MIC (Candida species; [5]) was 7.5 µg/mL.
In the case of `CC[C@@H]([C@H](C)OC(=O)CCCOP(=O)(O)O)n1ncn(-c2ccc(N3CCN(c4ccc(OC[C@@H]5CO[C@@](Cn6cncn6)(c6ccc(F)cc6F)C5)cc4)CC3)cc2)c1=O` [Formula II.2 NMG], the “AUC (of formula IV), time zero to 24 hrs” value [4] is reported as 79.1, the “blood levels of the compound of formula IV” value ([4]; mice, intravenous, in water) is reported as “superior blood levels” and the “pharmacokinetic parameters of formula IV versus those from di-NMG salt of formula V” value ([4]; mice, intravenous, side-by-side comparison) is reported as “unexpectedly superior”. The water solubility (Water solubility) was “water soluble”.
With `CC[C@@H]([C@H](C)OC(=O)CCCCOP(=O)(O)O)n1ncn(-c2ccc(N3CCN(c4ccc(OC[C@@H]5CO[C@@](Cn6cncn6)(c6ccc(F)cc6F)C5)cc4)CC3)cc2)c1=O` [Formula V.2 NMG, reference compound] the “AUC (of formula IV), time zero to 24 hrs” value [4] was 36.7.
